Data set [1] relates to E. coli ATCC 2592. To be noted: ATCC 2592.
The test system of data set [2] is P. aeruginosa ATCC 10145. The note with it: ATCC 10145.
The test system of data set [3] is S. aureus (methicillin resistant) ATCC 33591. The note with it: ATCC 33591.
Data set [4] concerns C. albicans 10231. The format is cell-based. To be noted: 10231. Put shortly:
(§1)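 Broth microdilution per NCCLS, adapted for fungi with Sabouraud Dextrose Broth; KFAK-repeat peptide multimers in two-fold dilutions from 1,000 to 1 μg/ml. Growth by OD620 after overnight incubation; IC50 by sigmoidal fit, in duplicate, repeated at least twice.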

Data set [5] concerns Cr. Neoformans 32045. It counts as cell-based. The procedure, abridged: as §1
Data set [6] can be described thus: Red blood cell toxicity. It counts as cell-based. The note with it: red blood cells (RBC).
Data set [7] relates to Red blood cells (RBC). Nature of the data set: Red blood cell toxicity. The format is cell-based.
Data set [8] relates to HeLa cell line. Nature of the data set: HeLa MTS cellular reduction toxicity assay. The format is cell-based. The note with it: for TX50: 24 h, MTS. Put shortly:
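HeLa cells grown 48 h, then exposed to serial 2-fold peptide dilutions for 24 h at 37 °C, 5% CO2. MTS-PMS added for 1 h; absorbance at 490 nm compared with untreated cells. TX50 (50% toxicity concentration) from sigmoidal curve fit.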
Background: Tetrazolium dyes change colour on reduction, which living cells bring about.

Data set [9] concerns P. aeruginosa ATCC 15442. The experiment in a line: HMARQ biocidal kill activity. The format is cell-based. The note with it: P. aeruginosa ATCC 15442 (gram−). Put shortly:
(§2)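 Inoculated sample matrix (200–300 μL) added to biocide in 96-well blocks alongside untreated controls; for kill-time runs organisms added after biocide. Viable counts by MPN serial 1:10 dilution in TSB with 50 μM resazurin indicator; values are ppm (μg/mL) giving 3.5 log kill versus untreated at 15 min or 24 h.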

The test system of data set [10] is Staph. aureus ATCC 6538. Nature of the data set: HMARQ biocidal kill activity. It counts as cell-based. To be noted: Staph. aureus ATCC 6538 (gram+). The procedure, abridged: as §2
Where [11] appears, read: RBCs, concentration required for 50% toxicity, read-out: TX50.

Where two headings read alike, the source gives them in different places. Where no end group is shown, it is not given here.

With “KAAKKAAKKAAKKAAKKAAKKAAKKAAK [KAAK (7), KAAK KAAK KAAK KAAK KAAK KAAK KAAK]”, the IC50 (in general, the midpoint of a concentration-inhibition curve) in [1] was 261 µg/mL; in data set [2] it was >250 µg/mL; in data set [3], >500 µg/mL; in data set [4] it was 262 µg/mL; in [5], 41 µg/mL. Further, the MIC – broadly, the least concentration at which growth counts as inhibited – in data set [2] is >250 µg/mL; in data set [3], >500 µg/mL; in [4] it was >500 µg/mL; in data set [5], 62 to 125 µg/mL. In data set [6] (setting [11]), the HC50 at 24 h is > 500 µg/mL. In [7], the “% kill at 250 μg/ml” value is listed as −6%. The “% kill at 500 μg/ml” value in data set [8] is on record as 90.0%. Also, the TX50 in [8] is >500 µg/mL. In addition, the “ppm needed for 3.5 log kill at 15 min” value in data set [9] and in data set [10] was >500 ppm in each case. The “ppm needed for 3.5 log kill at 24 hr” value in data set [9] is 125 ppm; in [10], 250 ppm.

Take “H-LKKLLKKLLKKLLKKLLKKL-OH [LKKL (5), LKKL LKKL LKKL LKKL LKKL]”: the IC50 was found to be 49 µg/mL in [1]; 27 µg/mL in data set [2]; 69 µg/mL in data set [3]; 211 µg/mL in data set [4]; 55 µg/mL in data set [5]. Further, the minimum inhibitory concentration (MIC) in data set [1] was 62 to 125 µg/mL; in data set [2] it was 62 µg/mL; in data set [3] it was >250 µg/mL; in data set [4], >500 µg/mL; in data set [5], 62 to 125 µg/mL. In data set [6] (setting [11]), the HC50 at 24 h worked out at 9 µg/mL. In data set [7], the “% kill at 250 μg/ml” value stood at 100%. For the same substance, the “% kill at 500 μg/ml” value in [8] is −0.7%. The same substance returned a TX50 in data set [8] of 31 µg/mL. The “ppm needed for 3.5 log kill at 15 min” value in data set [9] and in data set [10] was >500 ppm each time. The “ppm needed for 3.5 log kill at 24 hr” value came to 8 ppm in [9] and 125 ppm in [10].

For “AKKFAKKFAKKFAKKFAKKFAKKF [AKKF (6), AKKF AKKF AKKF AKKF AKKF AKKF]”, the half-maximal inhibitory concentration (IC50) is 8 µg/mL in data set [1]; 21 µg/mL in [2]; 41 µg/mL in data set [3]; 225 µg/mL in [4]; 11 µg/mL in data set [5]. The MIC in data set [1] was 16 to 32 µg/mL; in data set [2], 25 µg/mL; in data set [3], 125 to 250 µg/mL; in data set [4], 250 to 500 µg/mL; in [5], 16 to 32 µg/mL. The substance further gave an HC50 at 24 h in data set [6] of 39 µg/mL. Besides, the “% kill at 250 μg/ml” value in data set [7] is 100%. Moreover, in data set [8], the “% kill at 500 μg/ml” value amounted to 7.3%. The substance also came in with a TX50 in [8] of 33 µg/mL. Moreover, the “ppm needed for 3.5 log kill at 15 min” value in data set [9] and in data set [10] was >500 ppm throughout. In addition, the results for the “ppm needed for 3.5 log kill at 24 hr” value in data set [9] and in data set [10] were 16 ppm and 125 ppm, respectively.

Turning to “H-FKAFKAFKAFKAFKAFKAFKAFKAFKA-OH [FKA (9), FKA FKA FKA FKA FKA FKA FKA FKA FKA]”, the IC50 in data set [1] is 4 µg/mL; in data set [2], 16 µg/mL; in [3], 17 µg/mL; in data set [4] it was 195 µg/mL; in data set [5], 16 µg/mL. Further, the MIC was 31 to 62 µg/mL in [1]; 20 µg/mL in [2]; 31 to 62 µg/mL in [3]; 250 to 500 µg/mL in data set [4]; 62 to 125 µg/mL in data set [5]. In [6] (setting [11]), the HC50 at 24 h is > 500 µg/mL. The “% kill at 250 μg/ml” value in [7] came out at 24%. Further, the “% kill at 500 μg/ml” value in data set [8] is recorded as 20.9%. Further, in data set [8], the TX50 was 389 µg/mL. The “ppm needed for 3.5 log kill at 15 min” value in [9] was 4 ppm; in data set [10] it was 8 ppm. For the same substance, the “ppm needed for 3.5 log kill at 24 hr” value in [9] is 4 ppm; in [10] it was 125 ppm.

In the case of “H-KFAKKFAKKFAKKFAKKFAKKFAKKFAKKFAK-OH [KFAK (8), KFAK KFAK KFAK KFAK KFAK KFAK KFAK KFAK]”, the IC50 in data set [1] turned out to be 12 µg/mL; in [2], 19 µg/mL; in data set [3], 40 µg/mL; in data set [4], 105 µg/mL; in [5], 4.1 µg/mL. Moreover, the MIC in [1] is 16 to 32 µg/mL; in [2], 20 µg/mL; in data set [3], 125 to 250 µg/mL; in data set [4], 125 to 250 µg/mL; in [5], 8 to 16 µg/mL. For the same substance, in [6], the HC50 at 24 h was > 500 µg/mL. The “% kill at 250 μg/ml” value in [7] was 48%. In addition, the “% kill at 500 μg/ml” value in data set [8] turned out to be 18.2%. Besides, the TX50 in data set [8] is 249 µg/mL. Besides, the “ppm needed for 3.5 log kill at 15 min” value is reported as 31 ppm in [9] and >500 ppm in data set [10]. In addition, the results for the “ppm needed for 3.5 log kill at 24 hr” value in data set [9] and in [10] were 31 ppm and 8 ppm, respectively.

In the case of “H-KKAKKKAKKKAKKKAKKKAKKKAKKKAK-OH [KKAK (7), KKAK KKAK KKAK KKAK KKAK KKAK KKAK]”, the IC50 was 26 µg/mL in data set [1]; 99 µg/mL in data set [2]; 60 µg/mL in [3]; >500 µg/mL in data set [4]; 28 µg/mL in data set [5]. Moreover, the MIC in data set [1] was 31 to 62 µg/mL; in data set [2], 125 µg/mL; in data set [4] it was >500 µg/mL; in [5], >63 µg/mL. Also, the HC50 at 24 h in data set [6] (setting [11]) was > 500 µg/mL. Also, in data set [7], the “% kill at 250 μg/ml” value is reported as −6%. Further, the “% kill at 500 μg/ml” value in data set [8] is >87.9%. Also, the TX50 in [8] was >500 µg/mL. Besides, the “ppm needed for 3.5 log kill at 15 min” value in [9] is 16 ppm; in data set [10], >500 ppm. In addition, the “ppm needed for 3.5 log kill at 24 hr” value in [9] was found to be 16 ppm; in [10], 125 ppm.

Turning to “H-LKLKLKLKLKLKLKLK-OH [LK (8), LK LK LK LK LK LK LK LK]”, the IC50 in data set [1] was 65 µg/mL; in data set [2], 125 µg/mL; in data set [3], 56 µg/mL; in data set [4], 162 µg/mL; in [5], 9.7 µg/mL. For the same substance, the MIC in data set [1] was >125 µg/mL; in data set [2], 130 µg/mL; in data set [3] it was 125 to 250 µg/mL; in data set [4] it was 250 to 500 µg/mL; in [5] it was 32 to 63 µg/mL. Besides, in data set [6] (setting [11]), the HC50 at 24 h is > 500 µg/mL. The “% kill at 250 μg/ml” value in data set [7] stood at 13%. Also, in data set [8], the “% kill at 500 μg/ml” value was 43.5%. Besides, in data set [8], the TX50 amounted to 122 µg/mL. Further, the “ppm needed for 3.5 log kill at 15 min” value in data set [9] stood at 8 ppm; in data set [10] it was 31 ppm. Moreover, the results for the “ppm needed for 3.5 log kill at 24 hr” value in data set [9] and in [10] were 16 ppm and 4 ppm, respectively.

Turning to “H-LKKLLKKLLKKLLKKLLKKLLKKLLKKL-OH [LKKL (7), LKKL LKKL LKKL LKKL LKKL LKKL LKKL]”, the IC50 in [1] came to 41 µg/mL; in [2], 96 µg/mL; in data set [3], 252 µg/mL; in data set [4], 199 µg/mL; in data set [5], 85 µg/mL. For the same substance, the MIC in data set [1] is 62 to 125 µg/mL; in [2] it was 125 µg/mL; in data set [3], >250 µg/mL; in data set [4] it was 250 to 500 µg/mL; in data set [5] it was 100 to 125 µg/mL. In addition, in data set [6] (setting [11]), the HC50 at 24 h was determined as 9 µg/mL. For the same substance, in data set [7], the “% kill at 250 μg/ml” value is recorded as 100%. In addition, the “% kill at 500 μg/ml” value in data set [8] is on record as −0.4%. In addition, in [8], the TX50 was determined as 25 µg/mL. Also, the “ppm needed for 3.5 log kill at 15 min” value turned out to be 125 ppm in data set [9] and 4 ppm in data set [10]. The results for the “ppm needed for 3.5 log kill at 24 hr” value in [9] and in data set [10] were 8 ppm and 125 ppm, respectively.

Take “RFARRFARRFARRFARRFARRFARRFARRFAR [RFAR (8), RFAR RFAR RFAR RFAR RFAR RFAR RFAR RFAR]”: the IC50 amounted to 12 µg/mL in data set [1]; 30 µg/mL in [2]; 20 µg/mL in [3]; 144 µg/mL in data set [4]; 32 µg/mL in data set [5]. In addition, the MIC is 32 to 62 µg/mL in data set [1]; 62 µg/mL in data set [2]; 125 to 250 µg/mL in [3]; 250 to 500 µg/mL in data set [4]; 62 to 125 µg/mL in [5]. Besides, in data set [6] (setting [11]), the HC50 at 24 h is 17 µg/mL. Also, in data set [7], the “% kill at 250 μg/ml” value amounted to 100%. For the same substance, the “% kill at 500 μg/ml” value in data set [8] came to 9.5%. Moreover, in [8], the TX50 came out at 71 µg/mL. Moreover, the “ppm needed for 3.5 log kill at 15 min” value in [9] and in data set [10] was >500 ppm each time. Further, the results for the “ppm needed for 3.5 log kill at 24 hr” value in data set [9] and in data set [10] were 16 ppm and 125 ppm, respectively.
